Assay results published in the supplement of paper PMC3974653.
Counter-ions that a name gives are not always drawn.

System: MTT (mouse pheochromocytoma)
Experiment: IC50 of cell viability (ATP content)
Conditions: (24 or 48 h)
In short: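 After overnight culture at 37°C, 5% CO2 in white 1536-well plates, MTT mouse pheochromocytoma cells were given 23 nl of library compound in DMSO by pintool across 8 concentrations, spanning final 0.5 nM to 46 µM. Following 24 or 48 hrs, CellTiter-Glo luminescence was read after 15 minutes and normalised against positive-control (100%) and DMSO (0%) wells. A four-parameter logistic model provided the IC50.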

Row | Compound | IC50 of cell viability
1 | CN1N(C2=CC=CC=C2)C(=O)C(=C1/C)/NC(=O)C3=CN=CC=C3 [Nifenazone] | > 46 µM
2 | CCOC(N)=O [URETHANE] | > 46 µM
3 | CC[N+](C)(CC)CCOC(=O)C(O)(c1ccccc1)c1ccccc1 [METHYLBENACTYZIUM BROMIDE] | > 46 µM
4 | NCCc1ccc(O)c(O)c1 [DOPAMINE] | > 46 µM
5 | CCN(CC)C(=O)N[C@@H]1C[C@@H]2c3cccc4[nH]cc(c34)C[C@H]2N(C)C1 [R(+)-TERGURIDE] | > 46 µM
6 | O=C(O)[C@H]1CN(C/C=C/P(=O)(O)O)CCN1 [MIDAFOTELUM] | > 46 µM
7 | CC[C@@]1(c2ccccc2)NC(=O)N(C)C1=O [MEPHENYTOIN] | > 46 µM
8 | C=CCOc1cc(Cl)ccc1C(=O)NCCN(CC)CC [ALLOCLAMIDE HYDROCHLORIDE] | > 46 µM
9 | CCN(CC)CCOc1ccccc1OC [Guaiactamine] | > 46 µM
10 | CCCOC(=O)c1ccc(O)cc1 [Propylparaben] | > 46 µM
11 | Nc1nc(N)nc(NC2CC2)n1 [CYROMAZINUM] | > 46 µM
12 | O=C(NCCNCC(O)COc1ccc(O)cc1)N1CCOCC1 (stereo not drawn) [XAMOTEROL] | > 46 µM
13 | COc1ccc(O)cc1 [MEQUINOL] | > 46 µM
14 | CCC(=O)OC1(c2ccccc2)CCN(C)CC1C (stereo not drawn) [BETAPRODINUM] | > 46 µM
15 | CNC[C@H](O)c1ccc(O)c(O)c1 [EPINEPHRINE] | > 46 µM
16 | Cc1nccn1C[C@@H]1CCc2c(c3ccccc3n2C)C1=O [Ondansetron Hydrochloride] | > 46 µM
17 | CC(CC(c1ccccc1)c1ccccc1)NC(C)(C)C (stereo not drawn) [Terodiline hydrochloride] | > 46 µM
18 | OC\C1=C\C(=O)\C(=C/O1)O [KOJIC ACID] | > 46 µM
19 | C[C@@H](O)[C@@H]1C(=O)N2C(C(=O)O)=C([C@H]3CCCO3)SC12 (stereo partly drawn) [Faropenem] | > 46 µM
20 | O=C(N[C@@H]1N=C(c2ccccc2F)c2cccc3c2N(CC3)C1=O)c1cc2ccccc2[nH]1 [Pranazepide] | > 46 µM
21 | CN[C@H]1[C@H](O[C@@H]2O[C@@H](CO)[C@H](N)[C@H](O)[C@@H]2O)O[C@H]2C[C@@H](N)[C@@H](O[C@H]3[C@H](O)[C@H](O)[C@H](N)C[C@@H]3N)O[C@@H]2[C@H]1O [Apramycin] | > 46 µM
22 | CCC(=O)NCCC1CCc2ccc3c(c21)CCO3 (stereo not drawn) [RAMELTEON] | > 46 µM
23 | O=C(c1ccc(F)cc1)C1CCN(CCn2c(=S)[nH]c3ccccc3c2=O)CC1 [Altanserin hydrochloride] | > 46 µM
24 | COP(=O)(OC)C(O)C(Cl)(Cl)Cl (stereo not drawn) [Trichlorfon] | > 46 µM

Row | Compound | IC50 of cell viability
25 | COc1cc2nc(O)nc(O)c2cc1OC [6,7-DIMETHOXYQUINAZOLINE-2,4(1H,3H)-DIONE] | > 46 µM
26 | COc1ccc2c(c1OC)CN1CCc3cc4c(cc3[C@H]1C2)OCO4 [(d,l)-Tetrahydroberberine] | > 46 µM
27 | COC(=O)C1C(OC(=O)c2ccccc2)CC2CCC1N2C (single isomer, unassigned; (-)) [(-)-Cocaine] | > 46 µM
28 | CC(=O)OC1=CC=C(C=C1)C(=C2/CCCCC2)\C3=CC=C(OC(C)=O)C=C3 [CYCLOFENIL] | > 46 µM
29 | CC[C@@H]1[C@@H]2C[C@H]3[C@H]4N(C)c5ccccc5[C@@]45C[C@H]([C@H]2[C@H]5O)[N@@]3[C@H]1O [Ajmaline] | > 46 µM
30 | Oc1ccc(Cl)c2c1CCC2 [Chlorindanol] | > 46 µM
31 | CCCCOc1ccc(CC(=O)NO)cc1 [Bufexamac] | > 46 µM
32 | O=C(NNCNNC(=O)c1ccncc1)c1ccncc1 [Metazida] | > 46 µM
33 | CCOC(=O)C1(c2ccccc2)CCN(CCC(C#N)(c2ccccc2)c2ccccc2)CC1 [DIPHENOXYLATE HYDROCHLORIDE] | > 46 µM
34 | CC1OC(OC2CCC3(C)C(CCC4C3CC(O)C3(C)C(C5=CC(=O)OC5)CCC43O)C2)CC(O)C1OC1CC(O)C(OC2CC(O)C(OC3OC(CO)C(O)C(O)C3O)C(C)O2)C(C)O1 (stereo not drawn) [DESLANOSIDE] | > 46 µM
35 | COc1cccc(C(=O)CCN[C@@H](C)[C@H](O)c2ccccc2)c1 [Oxyphedrine] | > 46 µM
36 | CC(C)(C)NC[C@H](O)COc1cccc2c1CCC(=O)N2 [Carteolol hydrochloride] | > 46 µM
37 | Cc1ccc(/C=C2/C(=O)C3(C)CCC2C3(C)C)cc1 (stereo not drawn) [ENZACAMENE] | > 46 µM
38 | CCCC1CCCCN1 (stereo not drawn) [CONIINE] | > 46 µM
39 | CCN1CCC[C@H]1CNC(=O)c1c(O)c(Cl)cc(Cl)c1OC [S(-)-RACLOPRIDE] | > 46 µM
40 | Cc1cccc(C)c1NC(=O)CN1CCCCCC1 [PINCAINIDUM] | > 46 µM
41 | C=CC(C)(O)CC/C=C(\C)CCC=C(C)C (stereo not drawn) [NEROLIDOL] | > 46 µM
42 | CCN(CC)C(=O)[C@H]\1CN(C)[C@@H]\2CC3=C[NH]C4=C3C(=CC=C4)C2=C1 [(+)-Lysergic] | > 46 µM
43 | C=CCN1C(=O)C(CC(C)C)NC1=S (stereo not drawn) [ALBUTOINUM] | > 46 µM
44 | CC(C)(C)C(=O)OCC(=O)C1CCC2C3CCC4=CC(=O)CCC4(C)C3CCC12C (stereo not drawn) [DESOXYCORTICOSTERONE PIVALATE] | > 46 µM
45 | O=C1C(CCC(O)c2ccc(F)cc2)C(c2ccc(O)cc2)N1c1ccc(F)cc1 (stereo not drawn) [EZETIMIBE] | > 46 µM
46 | C#CC(C)(O)CC (stereo not drawn) [Methylpentynolum] | > 46 µM
47 | C1C[C@@H](\C2=N\CCN2)C3=C(C1)C=CC=C3 [Tetrahydrozoline hydrochloride] | > 46 µM
48 | N[C@@H](Cc1ccc(O)c(O)c1)C(=O)O [L-3,4-DIHYDROXYPHENYL-ALANINE] | > 46 µM

Next, values leading:

Row | IC50 of cell viability | Compound
49 | > 46 µM | CN/C(=C\[N+](=O)[O-])NCCSCc1ccc(CN(C)C)o1 [RANITIDINE]
50 | > 46 µM | COC(=O)C1=C(C)NC(C)=C(C(=O)OCC(C)=O)C1c1ccccc1[N+](=O)[O-] (stereo not drawn) [Aranidipine]
51 | > 46 µM | CCCCCCCC(=O)O [caprylic acid (octanoic acid)]
52 | > 46 µM | CCCCC(F)(F)[C@@]1(O)CC[C@H]2[C@@H](CC(=O)[C@@H]2CCCCCCC(=O)O)O1 [Lubiprostone]
53 | > 46 µM | CC1(C)OC[C@@H](COC(=O)CCc2ccc(OC[C@@H](O)CNCCNC(=O)N3CCOCC3)cc2)O1 [Landiolol Hydrochloride]
54 | > 46 µM | CC1=C(C)C(=O)C(C(CCCCCC(=O)O)c2ccccc2)=C(C)C1=O (stereo not drawn) [SERATRODAST]
55 | > 46 µM | COc1cc(C)c(/C=C/C(C)=C/C=C/C(C)=C/C(=O)O)c(C)c1C [ACITRETIN]
56 | > 46 µM | CCOCC(O)COc1ccc(NC(=O)CC[S+](C)C)cc1 (stereo not drawn) [SUPLATAST TOSILATE]
57 | > 46 µM | CCCCC/C=C/C/C=C/CCCCCCCC(=O)NC(C)c1ccccc1 (stereo not drawn) [MELINAMIDE]
58 | > 46 µM | CC1=C(C(=O)O)N2C(=O)[C@@H](NC(=O)[C@H](N)c3ccccc3)[C@H]2SC1 [Cefalexina]
59 | > 46 µM | C[C@H](O)C(=O)Nc1c(I)c(C(=O)NC(CO)CO)c(I)c(C(=O)NC(CO)CO)c1I [Iopamidol]
60 | > 46 µM | CC(=O)O.CNC(=N)NCCC[C@H](N)C(=O)O [NG-Monomethyl-L-arginine acetate]
61 | > 46 µM | CC(C)CCCC(C)C1CC(=O)C2=C3CCC4CC(O)CCC4(C)C3CCC21C (stereo not drawn) [Colestolone]
62 | > 46 µM | CN(CCO)CC(O)Cn1cnc2c1c(=O)n(C)c(=O)n2C.O=C(O)c1cccnc1 (stereo not drawn) [Xanthinol niacinate]
63 | > 46 µM | NCCCC(=O)O [GABA]
64 | > 46 µM | CCN(CC)CCNC(C(=O)OCCC(C)C)c1ccccc1 (stereo not drawn) [ACAMYLOPHENINE HYDROCHLORIDE]
65 | > 46 µM | CC(C)CC(=O)N[C@H](C(=O)N[C@H](C(=O)N[C@@H](CC(C)C)[C@@H](O)CC(=O)N[C@@H](C)C(=O)N[C@@H](CC(C)C)[C@@H](O)CC(=O)O)C(C)C)C(C)C [PEPSTATINUM]
66 | > 46 µM | CCCCCCC(=O)O[C@@H]1CC[C@H]2[C@@H]3CCc4cc(O)ccc4[C@H]3CC[C@]12C [Estradiol enanthate]
67 | > 46 µM | CC(C)(C)NC(=O)[C@@H]1C[C@@H]2CCCC[C@@H]2CN1C[C@@H](O)[C@H](Cc1ccccc1)NC(=O)[C@H](CC(N)=O)NC(=O)c1ccc2ccccc2n1 [Saquinavir Mesylate]
68 | > 46 µM | C[S+](=O)([O-])c1ccc([C@H](O)[C@H](CF)NC(=O)C(Cl)Cl)cc1 [Florfenicol]
69 | > 46 µM | CCOC(=O)C1=C(C)NC(C)=C(C(=O)OCC)C1c1ccccc1/C=C\C(=O)OC(C)(C)C [Lacidipine]
70 | > 46 µM | CC(=O)N[C@@H](C=O)[C@@H](O)[C@H](O)[C@H](O)CO [N-Acetylgalactosamine]
71 | > 46 µM | C=C[C@]1(C)C[C@@H](OC(=O)CSCCN(CC)CC)[C@]2(C)C(C)CC[C@]3(CCC(=O)[C@H]32)[C@@H](C)[C@@H]1O (stereo partly drawn) [TIAMULIN]
72 | > 46 µM | C[C@H](/C=C/[C@H](C)C(C)(C)O)[C@H]1CC[C@H]2/C(=C/C=C3C[C@@H](O)C[C@H](O)C3)CCC[C@]12C [Paricalcitol]
73 | > 46 µM | CC(C)(C)NC(=O)[C@@H]1CN(Cc2cccnc2)CCN1C[C@@H](O)C[C@@H](Cc1ccccc1)C(=O)N[C@H]1c2ccccc2C[C@H]1O [INDINAVIR SULFATE]
